Data reported in EP4741420A1, “PHARMACEUTICAL COMPOSITION FOR PREVENTING OR TREATING OBESITY COMPRISING GLP ANALOGUE AS ACTIVE INGREDIENT” (priority 2023, dated 2025).
Peptide text beside a SMILES is read from it.

Columns and labels:
[1] = test system: diet-induced obesity (DIO) mouse model; test: DIO mouse model QD: fat weight by tissue (Example 7-3); type: in vivo; conditions: fat weight of tissue, DIO mice, QD (once daily), 45 nmol/kg/dose
Procedure: (§1) The anti-obesity effects of SEQ ID NO: 1 prepared in Example 1, and SEQ ID NOs: 6 and 7 prepared in Example 4 were analyzed. […] In addition, as an experimental model, a diet-induced obesity (DIO) mouse model fed a high-fat diet for 3 months was used.
To analyze the anti-obesity effect, the amount of fat by tissue was measured postmortem to further confirm the efficacy of the peptide in obesity. Specifically, the epididymal, mesenteric, inguinal, and perirenal tissues of animals euthanized by decapitation were excised to measure the fat weights for each tissue and then photographed.

[2] = test system: diet-induced obesity (DIO) mouse model; test: DIO mouse model QD: weight loss and cumulative food intake (Example 7-1); type: in vivo; conditions: DIO mice, QD (once daily), 4-week administration, 45 nmol/kg/dose
Procedure: The obesity treatment effect of the long-acting GLP analog prepared in Example 1 was evaluated. Specifically, an obesity animal model was prepared to confirm the obesity treatment effect, and after administering a certain amount of material, the model was subjected to measurement of a body weight and the change in food intake, and biochemical tests. First, to establish a diet-induced obesity mouse model, C57BL/6 DIO mice were fed a high-fat diet for 12 weeks, resulting in a body weight that was 130% that of the control (DIO model). Afterward, the mice were grouped at a specific time point to determine the average weight of the DIO model (46.2±2.2), followed by drug administration to the mice for 4 weeks. Here, the body weight and food intake were measured daily.
as §1
To analyze the anti-obesity effect, first, the comparative analysis of weight loss effect and cumulative food intake was conducted. The experimental method was the same as described in Example 3.

[3] = Mouse PK after single subcutaneous administration, LC-MS/MS of plasma; type: in vivo, mice; conditions: male, C57BL/6N, mouse, in vivo, sc
Procedure: Each of the experimental groups and the control was subcutaneously administered once to the dorsal area of a total of 12 mice using a 1 mL syringe equipped with a 26-gauge needle at a dose of 0.2 mg/5 mL/kg. After drug administration, approximately 0.04 to 0.05 mL of blood was collected per individual at the time scheduled for the orbital vein (4 mice were alternately sampled), and the blood collection times were 1, 2, 4, 8, 24 ,32 ,48, 56, 72, 96, and 120 hours. All plasma samples were analyzed using a self-developed LC-MS/MS assay. Pharmacokinetic analysis of blood drugs was performed using non-compartmental analysis, and analysis of pharmacokinetic parameters was performed using Phoenix WinNolin 64 (Version. 8.3.5 340).

C57BL/6 DIO mice = test: Diet-induced obesity mouse model: blood/serum biochemical tests (Example 3); type: in vivo; conditions: after 4 weeks, 0.20 mg/kg/dose (dose from Table 3)
Procedure: Here, the body weight and food intake were measured daily.
In addition, after the experiment was completed, blood and serum samples were obtained from each mouse model, and biochemical tests were performed for blood glucose, total cholesterol, high-density lipoprotein (HDL), low-density lipoprotein (LDL), and triglycerides.

Work on `CCCCCCCCCCCCCCCC(=O)N[C@@H](CCC(=O)NCCCC[C@H](NC(=O)[C@H](CCCCN)NC(=O)[C@H](CC(=O)O)NC(=O)[C@@H](NC(=O)[C@@H](NC(=O)[C@H](CCCCN)NC(=O)[C@@H](NC(=O)[C@H](CCC(N)=O)NC(=O)[C@@H](NC(=O)[C@H](CC(C)C)NC(=O)[C@H](Cc1c[nH]c2ccccc12)NC(=O)[C@H](CC(N)=O)NC(=O)[C@@H](NC(=O)[C@H](Cc1ccccc1)NC(=O)[C@H](CC(=O)O)NC(=O)[C@H](CCCNC(=N)N)NC(=O)[C@H](C)NC(=O)[C@H](C)NC(=O)[C@H](CC(C)C)NC(=O)[C@H](C)NC(=O)[C@H](CC(=O)O)NC(=O)[C@H](CC(C)C)NC(=O)[C@H](Cc1ccc(O)cc1)NC(=O)[C@@H](NC(=O)[C@H](CO)NC(=O)[C@H](CC(C)C)NC(=O)[C@H](CC(=O)O)NC(=O)[C@H](CO)NC(=O)[C@@H](NC(=O)[C@H](Cc1ccccc1)NC(=O)[C@@H](NC(=O)CNC(=O)[C@H](CCC(=O)O)NC(=O)CNC(=O)[C@@H](N)Cc1c[nH]cn1)[C@@H](C)O)[C@@H](C)O)[C@@H](C)O)[C@@H](C)CC)[C@@H](C)CC)[C@@H](C)O)[C@@H](C)CC)[C@@H](C)O)C(=O)O)C(=O)O` [HU020K2FA] (HELM PEPTIDE1{H.G.E.G.T.F.T.S.D.L.S.T.Y.L.D.A.L.A.A.R.D.F.I.N.W.L.I.Q.T.K.I.T.D.K.K}|PEPTIDE2{[CCCCCCCCCCCCCCCC(=O)[*:2]].[gGlu]}$PEPTIDE1,PEPTIDE2,35:R3-2:R2$$$V2.0; N-terminus and C-terminus assumed) yielded an Epididymal [1] of 1.71±0.16, an Inguinal [1] of 2.37±0.21 and a Mesentric [1] of 0.74±0.21. For the same compound, the Perirenal [1] was 0.33±0.08, the “Comparison of weight change (%)” value [2] was -16.0±3.2% and the “Weight” value [2] was 37.5 ± 2.6 g. For the same compound, the “Weight (%) (Normalized to DIO vehicle)” value [2] was 80.3±4.4%, the “Food intake” value ([2]; cumulative) was 16.0 ± 1.8 g and the Tmax [3] was 8 h. The half-life [3] was 396 min, the “Blood glucose” value (C57BL/6 DIO mice) was 192.0 ± 20.2 mg/dL and the “High-density lipoprotein” value (C57BL/6 DIO mice) was 76.0 ± 4.0 mg/dL. The “Low-density lipoprotein” value (C57BL/6 DIO mice) was 9.8 ± 1.5 mg/dL, the “Toal cholesterol” value (C57BL/6 DIO mice) was 134.8 ± 10.7 mg/dL and the “Triglyceride” value (C57BL/6 DIO mice) was 13.6 ± 4.8 mg/dL.
